Assays:
Experiment in all cases: relative viability (nuclei count vs DMSO), 5 days (fraction); higher = more cells survive
Tipifarnib + Crizotinib = compound: Cn1cncc1[C@@](N)(c1ccc(Cl)cc1)c1ccc2c(c1)c(-c1cccc(Cl)c1)cc(=O)n2C [Tipifarnib] + C[C@@H](Oc1cc(-c2cnn(C3CCNCC3)c2)cnc1N)c1c(Cl)ccc(F)c1Cl [Crizotinib] (partner 1 µM)
Summary of the method: (§1)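 Cells from lung cancer lines were seeded into 1536-well plates and, one day later, dosed by pin tool. Treatments were either a single drug or a fixed dose of an anchor drug with five library-drug doses (not always all listed) in √10 steps. After 5 days, nuclei were stained in a one-step fixation (final 0.05% Triton X-100, 1% formaldehyde, 1 ug/ml Hoechst) and counted on 4× images, and relative viability is the treated-to-vehicle nuclei ratio, as the median of duplicate plates.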

Tipifarnib + Linsitinib = compound: Cn1cncc1[C@@](N)(c1ccc(Cl)cc1)c1ccc2c(c1)c(-c1cccc(Cl)c1)cc(=O)n2C [Tipifarnib] + C[C@]1(O)C[C@@H](c2nc(-c3ccc4ccc(-c5ccccc5)nc4c3)c3c(N)nccn32)C1 [Linsitinib] (partner 1 µM)
Summary of the method: as §1

Tipifarnib + OSI-027 = compound: Cn1cncc1[C@@](N)(c1ccc(Cl)cc1)c1ccc2c(c1)c(-c1cccc(Cl)c1)cc(=O)n2C [Tipifarnib] + COc1cccc2cc(-c3nc([C@H]4CC[C@H](C(=O)O)CC4)n4ncnc(N)c34)[nH]c12 [OSI-027] (partner 0.5 µM)
Summary of the method: as §1

Tipifarnib + Tozasertib = compound: Cn1cncc1[C@@](N)(c1ccc(Cl)cc1)c1ccc2c(c1)c(-c1cccc(Cl)c1)cc(=O)n2C [Tipifarnib] + Cc1cc(Nc2cc(N3CCN(C)CC3)nc(Sc3ccc(NC(=O)C4CC4)cc3)n2)n[nH]1 [Tozasertib] (partner 0.1 µM)
Summary of the method: as §1

Cell Line	relative viability (Tipifarnib + Crizotinib; first compound 0.01 µM)	relative viability (Tipifarnib + Crizotinib; first compound 0.03162 µM)	relative viability (Tipifarnib + Crizotinib; first compound 0.1 µM)	relative viability (Tipifarnib + Crizotinib; first compound 0.3162 µM)	relative viability (Tipifarnib + Crizotinib; first compound 1 µM)	relative viability (Tipifarnib + Linsitinib; first compound 0.01 µM)	relative viability (Tipifarnib + Linsitinib; first compound 0.03162 µM)	relative viability (Tipifarnib + Linsitinib; first compound 0.1 µM)	relative viability (Tipifarnib + Linsitinib; first compound 0.3162 µM)	relative viability (Tipifarnib + Linsitinib; first compound 1 µM)	relative viability (Tipifarnib + OSI-027; first compound 0.01 µM)	relative viability (Tipifarnib + OSI-027; first compound 0.03162 µM)	relative viability (Tipifarnib + OSI-027; first compound 0.1 µM)	relative viability (Tipifarnib + OSI-027; first compound 0.3162 µM)	relative viability (Tipifarnib + OSI-027; first compound 1 µM)	relative viability (Tipifarnib + Tozasertib; first compound 0.01 µM)	relative viability (Tipifarnib + Tozasertib; first compound 0.03162 µM)	relative viability (Tipifarnib + Tozasertib; first compound 0.1 µM)	relative viability (Tipifarnib + Tozasertib; first compound 0.3162 µM)	relative viability (Tipifarnib + Tozasertib; first compound 1 µM)
201T	1.05	0.909	0.987	0.954	0.885	1.04	1.04	0.989	0.949	1.07	0.706	0.805	0.692	0.46	0.368	1.02	0.945	0.864	0.705	0.767
NCI-H838	0.694	0.538	0.434	0.434	0.433	0.955	0.826	0.684	0.628	0.6	0.357	0.339	0.23	0.231	0.184	0.254	0.286	0.248	0.214	0.252
SW 1573	0.767	0.701	0.462	0.317	0.316	0.7	0.709	0.518	0.387	0.365	0.583	0.244	0.292	0.238	0.17	0.177	0.179	0.145	0.142	0.176
PC-14	0.928	0.834	0.748	0.469	0.43	0.98	0.965	0.713	0.432	0.437	0.795	0.29	0.216	0.157	0.124	0.397	0.496	0.172	0.165	0.155
LK-2	0.231	0.217	0.238	0.209	0.222	0.499	0.506	0.399	0.379	0.487	0.183	0.193	0.195	0.165	0.164	0.158	0.173	0.189	0.157	0.162
COR-L23	0.731	0.341	0.3	0.248	0.386	1.01	0.628	0.614	0.374	0.409	0.572	0.36	0.261	0.24	0.202	0.213	0.175	0.232	0.146	0.15
NCI-H1944	1.12	0.92	0.624	0.568	0.609	1.3	1	1.09	0.644	0.737	0.419	0.324	0.307	0.247	0.263	0.257	0.256	0.236	0.25	0.236
HCC-78	0.321	0.357	0.303	0.29	0.266	0.607	0.565	0.562	0.354	0.361	0.325	0.376	0.354	0.373	0.308	0.403	0.371	0.388	0.32	0.297
NCI-H2405	0.896	0.827	0.837	0.804	0.712	0.952	0.885	0.845	0.821	0.79	0.673	0.641	0.629	0.599	0.474	0.708	0.666	0.626	0.544	0.532
SK-LU-1	0.932	0.665	0.667	0.639	0.657	0.986	0.728	0.642	0.631	0.67	0.324	0.286	0.293	0.222	0.181	0.305	0.302	0.311	0.248	0.265
EMC-BAC-2	0.737	0.621	0.659	0.534	0.526	0.855	0.798	0.689	0.706	0.636	0.365	0.3	0.364	0.3	0.266	0.3	0.281	0.272	0.262	0.271
NCI-H596	1.09	0.974	1.03	0.945	0.813	1	1.03	0.854	0.934	0.844	0.725	0.627	0.606	0.398	0.506	1.05	0.687	0.713	0.722	0.589
LCLC-97TM1	0.329	0.295	0.244	0.227	0.15	0.204	0.169	0.174	0.192	0.169	0.402	0.409	0.358	0.286	0.22	0.154	0.18	0.186	0.148	0.215
H3255	0.834	0.9	0.708	0.519	0.543	1.06	0.895	0.916	0.591	0.684	0.757	0.704	0.61	0.471	0.438	0.72	0.674	0.528	0.476	0.389
LXF-289	0.769	0.759	0.715	0.694	0.64	0.989	0.951	0.865	0.876	0.897	0.951	0.699	0.709	0.6	0.293	0.224	0.192	0.21	0.142	0.152
UMC-11	0.24	0.278	0.224	0.181	0.184	0.86	0.632	0.563	0.523	0.577	0.432	0.359	0.348	0.301	0.343	0.19	0.193	0.194	0.181	0.177

Cell Line	relative viability (Tipifarnib + Crizotinib; first compound 0.01 µM)	relative viability (Tipifarnib + Crizotinib; first compound 0.03162 µM)	relative viability (Tipifarnib + Crizotinib; first compound 0.1 µM)	relative viability (Tipifarnib + Crizotinib; first compound 0.3162 µM)	relative viability (Tipifarnib + Crizotinib; first compound 1 µM)	relative viability (Tipifarnib + Linsitinib; first compound 0.01 µM)	relative viability (Tipifarnib + Linsitinib; first compound 0.03162 µM)	relative viability (Tipifarnib + Linsitinib; first compound 0.1 µM)	relative viability (Tipifarnib + Linsitinib; first compound 0.3162 µM)	relative viability (Tipifarnib + Linsitinib; first compound 1 µM)	relative viability (Tipifarnib + OSI-027; first compound 0.01 µM)	relative viability (Tipifarnib + OSI-027; first compound 0.03162 µM)	relative viability (Tipifarnib + OSI-027; first compound 0.1 µM)	relative viability (Tipifarnib + OSI-027; first compound 0.3162 µM)	relative viability (Tipifarnib + OSI-027; first compound 1 µM)	relative viability (Tipifarnib + Tozasertib; first compound 0.01 µM)	relative viability (Tipifarnib + Tozasertib; first compound 0.03162 µM)	relative viability (Tipifarnib + Tozasertib; first compound 0.1 µM)	relative viability (Tipifarnib + Tozasertib; first compound 0.3162 µM)	relative viability (Tipifarnib + Tozasertib; first compound 1 µM)
LC-2-ad	0.399	0.391	0.382	0.349	0.35	0.756	0.705	0.487	0.448	0.369	0.765	0.755	0.522	0.499	0.438	0.509	0.37	0.415	0.407	0.393
SK-MES-1	0.974	0.864	0.95	0.69	0.656	1.08	0.917	0.985	0.792	0.809	0.642	0.453	0.354	0.265	0.332	0.834	0.76	0.63	0.566	0.572
A-427	1.01	0.866	0.782	0.732	0.844	1.18	1.11	1.05	1.09	1.09	0.406	0.316	0.365	0.361	0.254	0.164	0.205	0.227	0.171	0.211
NCI-H322M	0.874	0.854	0.79	0.463	0.587	0.934	0.921	0.96	0.672	0.853	0.5	0.492	0.513	0.415	0.445	0.55	0.492	0.511	0.417	0.46
HCC-366	0.695	0.389	0.151	0.17	0.034	0.619	0.487	0.343	0.206	0.0767	1.01	0.778	0.265	0.18	0.0734	0.091	0.0658	0.0515	0.0779	0.0476
NCI-H1975	0.93	0.989	0.717	0.566	0.49	1.07	1.16	0.876	0.614	0.714	0.788	0.701	0.567	0.318	0.31	0.853	0.695	0.682	0.386	0.374
NCI-H1437	0.978	0.959	1	0.763	0.894	1.15	0.993	1.04	0.816	0.698	0.823	0.728	0.488	0.446	0.33	0.398	0.358	0.381	0.319	0.353
NCI-H2009	0.994	1.01	0.789	0.563	0.578	1.19	1.09	0.903	0.702	0.667	0.659	0.362	0.335	0.299	0.245	0.605	0.574	0.421	0.341	0.419
NCI-H1651	0.951	0.856	0.893	0.789	0.843	1.18	1.06	0.964	0.892	0.961	0.65	0.729	0.673	0.558	0.456	0.927	0.649	0.615	0.575	0.711
LCLC-103H	1.01	1.01	0.893	0.87	0.85	1.04	1.02	1.02	0.802	0.913	0.383	0.445	0.372	0.363	0.31	0.413	0.375	0.364	0.309	0.31
NCI-H1666	0.958	0.816	0.761	0.626	0.843	0.719	0.704	0.623	0.549	0.573	0.73	0.737	0.585	0.566	0.602	0.593	0.507	0.526	0.447	0.517
NCI-H1734	0.802	0.589	0.425	0.444	0.352	0.875	0.85	0.709	0.694	0.48	0.581	0.444	0.463	0.316	0.365	0.294	0.26	0.247	0.215	0.239
EPLC-272H	1	0.722	0.766	0.64	0.265	1.17	1.16	1.21	0.83	0.531	0.276	0.229	0.247	0.267	0.212	0.366	0.266	0.224	0.249	0.243
NCI-H2023	0.491	0.495	0.302	0.27	0.333	0.598	0.503	0.37	0.329	0.384	0.412	0.273	0.225	0.143	0.132	0.251	0.289	0.217	0.182	0.215
BEN	0.928	0.939	0.731	0.684	0.636	1.03	1.18	0.835	0.696	0.716	0.296	0.289	0.303	0.262	0.309	0.576	0.398	0.491	0.418	0.504
COR-L 105	0.538	0.392	0.383	0.407	0.317	0.88	0.855	0.674	0.554	0.668	0.759	0.588	0.5	0.427	0.417	0.333	0.356	0.281	0.305	0.294
